Among the data in article PMC5155152, “A diverse intrinsic antibiotic resistome from a cave bacterium” (Nature Communications, 2016) are Km values, retold here.

What all share (type): biochemical, Paenibacillus sp. LC231
In one test the test system is T1, AAC(6′)-34.
T1 construct: recombinant in E. coli BL21(DE3), pET vector, Ni-NTA purified
In words: CoA liberation with DTDP, steady-state kinetics. To be noted: 25 mM MES pH 6.0, 1 mM EDTA, 25 °C.

Another test has as its system T2, VatI.
T2 construct: recombinant in E. coli BL21(DE3), pET vector, Ni-NTA purified
In words: steady-state kinetics. To be noted: 100 μM flopristin, 50 mM HEPES pH 7.5, 150 mM NaCl, 0.1 mM EDTA, 25 °C.

The next test has as its system T3, CpaA.
T3 construct: recombinant in E. coli BL21(DE3), pET vector, Ni-NTA purified
In words: spectrophotometric steady-state kinetics. To be noted: 5 μM capreomycin, 50 mM HEPES pH 7.5, 150 mM NaCl, 0.1 mM EDTA, room temperature.

The subject of another test is T4, MphI.
T4 construct: recombinant in E. coli BL21(DE3), pET vector, Ni-NTA purified
The test is described as follows: steady-state kinetics. To be noted: 400 μM tylosin, 50 mM HEPES pH 7.5, 40 mM KCl, 10 mM MgCl2, 25 °C.

With `CC(=O)SCCNC(=O)CCNC(=O)[C@H](O)C(C)(C)COP(=O)(O)OP(=O)(O)OC[C@H]1O[C@@H](n2cnc3c(N)ncnc32)[C@H](O)[C@@H]1OP(=O)(O)O` [acetyl-CoA], the Km was found to be 220 ± 26 µM in the test on AAC(6′)-34 (35 μM sisomicin), 48 ± 3 µM in the test on VatI and 39 ± 3 µM with CpaA. `CN[C@@H]1[C@@H](O)[C@@H](O[C@@H]2[C@@H](O)[C@H](O[C@H]3OC(CN)=CC[C@H]3N)[C@@H](N)C[C@H]2N)OC[C@]1(C)O` [sisomicin]: the Km with AAC(6′)-34 (500 μM acetyl-CoA) stood at 4.7 ± 0.4 µM. On to `Nc1nc2c(ncn2[C@@H]2O[C@H](COP(=O)(O)OP(=O)(O)OP(=O)(O)O)[C@@H](O)[C@H]2O)c(=O)[nH]1` [GTP], for which, in the test on MphI, the Michaelis-Menten constant (Km) came out at 10 ± 1.8 µM.

By Km is commonly meant the concentration of substrate that gives half-maximal velocity.
